Laboratory results: article PMC11866022, “Long-Chain Cyclic Arylguanidines as Multifunctional Serotonin Receptor Ligands with Antiproliferative Activity” (ACS Omega, 2025)

Experiments:
[1] = biological target: T1, D2 (Homo sapiens, UniProt P14416); experiment: Functional cAMP assay (LANCE Ultra), D2; assay type: cell-based; conditions: Table 3, unit inferred, antagonist mode, 10 nM dopamine
T1 construct: expressed in transfected cells; host or cells: HEK293
Procedure: (§1) Their functional activity was also evaluated by assessing their ability to inhibit agonist-induced cAMP production in HEK293 cells (Table 3). Extended radioisotope tests were aimed at detecting potential affinity for other aminergic receptors, whose role in cancer treatment may be important. Functions were tested for all receptors. The essence of functional tests results from the fact that serotonin stimulates tumor progression. Therefore, the ligand should have the potential to reduce its concentration, i.e., act as an antagonist.[39]
(§2) The detailed procedure is presented in previous publications.[53] The functional activity of the compounds was assessed using the LANCE Ultra cAMP detection kit (PerkinElmer). […] For other receptors (5-HT7R, 5-HT1AR, and 5-HT6R), 5-CT was used at 10, 100, and 1000 nM, respectively. Each compound was tested in triplicate across eight concentrations. The inhibitory constant (Kb) for each antagonist was calculated using the Cheng–Prusoff equation.

[2] = biological target: T2, 5-HT7 (Homo sapiens, UniProt P34969); experiment: Functional cAMP assay (LANCE Ultra), 5-HT7; assay type: cell-based
T2 construct: expressed in transfected cells; host or cells: HEK293
Procedure: as §1, §2

[3] = system: Feline catus astrocyte (PG-4); experiment: Cytotoxicity, PG-4 astrocytes; assay type: cell-based; conditions: Felis catus; normal astrocyte line
Procedure: (§3) The chosen group of ligands was further examined for their ability to inhibit proliferation across multiple cancer cell lines related to the CNS system (1321N1, U87MG, LN-229, and U-251). These cell lines were characterized by different mutation profiles, the main one being the variable status of the p53 protein. In detail, U87MG cells have a wild-type p53 protein, while astrocytoma and the rest of GBM cells harbor mutated p53 protein. Additional assays were performed on MCF7 breast cancer and AsPC-1 pancreatic cancer cells. The wide range of tested lines was aimed at screening the anticancer potential of the tested compounds. The first represents one of the most common and the second one of the most aggressive cancers in the world. Comparing the activity of compounds on GBM cells to other types of cancer may reveal their selectivity and usefulness in targeted therapies. The cytotoxicity of the compounds on normal human astrocytes (NHA) and Feline catus astrocyte (PG-4) was determined. Tests on normal lines serve to verify the potential toxicity of the tested compounds on healthy cells. Due to the targeting of CNS tumors, astrocytes were selected as normal lines.

[4] = system: Danio rerio; experiment: Fish embryo toxicity test (OECD 236); assay type: in vivo; conditions: Danio rerio embryos, 96 h of exposure
Procedure: Two compounds, PP 10 and PP 15, were tested for cardiotoxicity in the Danio rerio experimental model (OECD 236 test). […] To assess potential neurotoxic effects, locomotor activity was examined in the Danio rerio model. Zebrafish larvae’s response to light and dark transitions serves as a useful method for detecting neurotoxicity. […] In our experiment, we switched from light to dark conditions, as zebrafish larvae are known to avoid light and seek darker areas. This behavior helps them evade predators and maintain ideal environmental conditions.
Figure 4 A: Toxicity of PP 10 and PP 15in vivo in the Danio reiro embryo toxicity test. […] Cardiotoxicity of compounds B: PP 10 and C: PP 15 was evaluated by measuring the heart rate (beats per minute) in 5-dpf Danio rerio larvae, maintained in the E3 fish embryo growth medium. Statistical analysis was performed using GraphPad Prism 10.0.0, with one-way ANOVA followed by Dunnett’s comparison test (*p < 0.05, compared to the negative control E3).
The toxicity of compounds was evaluated using two tests: the fish embryo toxicity (FET) test and neurotoxicity assessment.[53] […] Acute toxicity was assessed by monitoring signs such as coagulation of fertilized eggs, somite formation absence, tailbud separation, and lack of heartbeat. The LD50 value was calculated, and cardiovascular effects were monitored through heartbeat observations.

[5] = system: Danio rerio; conditions: in vivo
Procedure: Two compounds, PP 10 and PP 15, were tested for cardiotoxicity in the Danio rerio experimental model (OECD 236 test). […]. To assess potential neurotoxic effects, locomotor activity was examined in the Danio rerio model. Zebrafish larvae’s response to light and dark transitions serves as a useful method for detecting neurotoxicity. […] In our experiment, we switched from light to dark conditions, as zebrafish larvae are known to avoid light and seek darker areas. This behavior helps them evade predators and maintain ideal environmental conditions. […]
Figure 5 A: In vivo toxicity assessment of PP 10 and PP 15 in Danio rerio using the maximum tolerated concentration (MTC) toxicity test. B: Locomotor activity under light conditions, quantified as the distance (in cm) traveled per minute by 5-day postfertilization (dpf) Danio rerio larvae. C: Locomotor activity under dark conditions, with the distance (in cm) traveled per minute recorded for 5-dpf larvae. D: Comparison of activity during the transition from light to dark conditions. E3 refers to the fish embryo growth medium. […]
A locomotor activity test was conducted on zebrafish larvae ([…]). […] The distance traveled by the larvae was measured in both light and dark conditions using EthoVision XT15 software, and the mean distance per minute was calculated for each condition to assess locomotor activity. […]

[6] = biological target: T2, 5-HT7; experiment: Functional cAMP assay (LANCE Ultra), 5-HT7; assay type: cell-based; conditions: Table 3, unit inferred, agonist mode
[7] = system: HSA and AGP in a ratio 24:1; experiment: TRANSILXL PPB plasma protein binding assay; conditions: Figures S149, S150
[8] = system: cancer cell lines; experiment: Antiproliferative activity over the tested cancer cell lines; assay type: cell-based; conditions: Homo sapiens; range or bound over several cell lines
Procedure: as §3
The detailed procedure is presented in previous publications.[53] […] Cell viability was assessed using the MTS assay, and the inhibitory concentration (IC50) was calculated using GraphPad Prism 8.0. […]

T2 sequence (P34969 whole entry, species assumed): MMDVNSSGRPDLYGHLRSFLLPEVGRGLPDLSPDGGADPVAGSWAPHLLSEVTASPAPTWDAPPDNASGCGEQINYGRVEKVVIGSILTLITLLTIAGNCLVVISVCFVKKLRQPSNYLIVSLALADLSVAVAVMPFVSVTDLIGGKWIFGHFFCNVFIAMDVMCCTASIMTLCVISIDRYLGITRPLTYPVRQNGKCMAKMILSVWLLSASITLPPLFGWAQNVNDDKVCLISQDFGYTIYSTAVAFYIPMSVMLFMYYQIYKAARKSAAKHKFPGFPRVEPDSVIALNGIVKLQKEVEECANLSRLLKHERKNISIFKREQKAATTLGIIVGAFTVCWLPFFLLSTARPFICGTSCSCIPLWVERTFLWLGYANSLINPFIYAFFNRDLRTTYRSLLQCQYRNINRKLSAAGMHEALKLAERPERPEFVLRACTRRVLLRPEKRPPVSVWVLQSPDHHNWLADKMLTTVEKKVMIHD
T1 sequence (P14416 whole entry): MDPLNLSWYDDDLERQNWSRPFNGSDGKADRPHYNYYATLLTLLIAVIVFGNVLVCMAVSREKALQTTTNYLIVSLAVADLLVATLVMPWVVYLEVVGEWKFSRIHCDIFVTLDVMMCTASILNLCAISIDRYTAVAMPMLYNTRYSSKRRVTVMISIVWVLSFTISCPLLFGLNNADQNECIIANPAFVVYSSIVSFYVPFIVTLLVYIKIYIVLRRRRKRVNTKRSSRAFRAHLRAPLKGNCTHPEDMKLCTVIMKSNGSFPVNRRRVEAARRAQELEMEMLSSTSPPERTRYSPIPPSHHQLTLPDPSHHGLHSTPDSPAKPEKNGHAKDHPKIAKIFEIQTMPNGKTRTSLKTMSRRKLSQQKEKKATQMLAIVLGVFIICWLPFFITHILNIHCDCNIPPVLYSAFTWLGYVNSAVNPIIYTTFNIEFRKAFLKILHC

Row | EC50 [6] [nM] | amount remaining after incubation with human plasma proteins (UPLC) [7] | IC50 [8] [nM] | Compound | Kb [1] [nM] | Kb ([2]; Table 3, unit inferred, cAMP, antagonist mode, 5-CT) [nM] | function at 5-HT7 ([2]; in words) | IC50 [3] [nM] | LD50 / LC50 (Figure 4) [4] [µg/mL] | neurotoxic effects (locomotor activity, light to dark) [5]
1 |  |  |  | CC1NC(NCCCCCCNS(=O)(=O)c2cccc3ccccc23)=Nc2ccccc21 (centres unmarked) [PP 10, N-{6-[(4-Methyl-3,4-dihydroquinazolin-2-yl)amino]hexyl}naphthalene-1-sulfonamide] | 1810 | 236 | antagonist | > 25000 | 15.34 | minimal neurotoxic effects
2 | 53 | COMPOUND NOT DETECTED |  | CC1NC(NCCCCCCNS(=O)(=O)c2c(Cl)ccc3ccccc23)=Nc2ccccc21 (centres unmarked) [PP 13, 2-Chloro-N-{6-[(4-methyl-3,4-dihydroquinazolin-2-yl)amino]hexyl}naphthalene-1-sulfonamide] | 858 |  |  |  |  | 
3 |  |  |  | O=S(=O)(NCCCCCCNc1ncc2ccccc2n1)c1cccc2ccccc12 [PP 15, N-{6-[(Quinazolin-2-yl)amino]hexyl}naphthalene-1-sulfonamide] |  |  |  | > 25000 | 2.147 | minimal neurotoxic effects
4 |  | COMPOUND NOT DETECTED | 7400 to 18300 | O=S1(=O)c2cccc3cccc(c23)N1CCCCCCNC1=Nc2ccccc2CN1 [PP 24, 3-{6-[(3,4-Dihydroquinazolin-2-yl)amino]hexyl}-2λ^6-thia-3-azatricyclo[6.3.1.0^4,^12]dodeca-1(11),4(12),5,7,9-pentaene-2,2-dione] |  |  |  |  |  | 
